Data reported in ChEMBL document CHEMBL1201862, “PubChem BioAssay data set” (2004).
Calls of active or inactive are those of the source.

How the values were obtained:
[1] = test system: Streptococcus sp. 'group A'; assay: Streptococcus pyogenes SK(-)GAS viability under kanamycin – luminescence, BacTiterGlo, confirmation, counter-screen for streptokinase expression inhibitor project, dose response (AID 1900); assay type: functional, organism-based
[2] = test system: BJ; assay: BJ-TERT fibroblast viability loss – cell-based, RAS-independent, luminescence, dose response (AID 1933); assay type: functional; settings: Homo sapiens
[3] = test system: BJ; assay: cells; assay type: functional, cell-based; settings: Homo sapiens
[4] = test system: BJ; assay: BJ-TERT-LT-ST fibroblast viability loss – cell-based, RAS-independent, luminescence, dose response (AID 1935); assay type: functional; settings: Homo sapiens;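 further: BJ fibroblasts immortalized with TERT plus LT and ST oncogenes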
[5] = DRD fibroblast viability loss – cell-based, non-viral oncogenic, luminescence, dose response (AID 1934); assay type: functional; settings: Homo sapiens
[6] = test system: Streptococcus; assay: GAS UMAA2166 growth inhibition – luminescence, BacTiterGlo, counter-screen for streptokinase expression inhibitor project, dose response (AID 1915); assay type: functional, organism-based;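 further: potency for reduction of bacterial viability or growth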
[7] = test system: HEK293; assay: EBV LMP1 TES2 canonical NF-kB signalling blockers – cell-based, HEK293, luciferase, cherry-pick, dose response (AID 588343); assay type: functional; settings: Homo sapiens
[8] = test system: P388/ADR; assay: cells; assay type: functional; settings: Mus musculus
[9] = test system: SN12K1; assay: cells; assay type: functional; settings: Homo sapiens
[10] = test system: P388; assay: cells; assay type: functional; settings: Mus musculus
[11] = off-target signal loss in HeLa-CEM21 co-culture – HeLa F-luc CTL cells, cherry-picked, counter-screen for HIV-1 Env fusion inhibitor project, dose response (AID 652040); assay type: functional, cell-based;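 further: potency for signal decrease marking cytotoxic or nonspecific inhibition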
[12] = rise of 2N DNA cells, HeLa – IC50, dose response (AID 1117349); assay type: functional, cell-based
[13] = CellTiter-Glo luminescence survival assay, SW480 colon tumor line, concentration-response curve, half-maximal inhibitory concentration (AID 1117338); assay type: functional
[14] = RKO cell viability reduction, dose response, CellTiter-Glo luminescence (AID 1117322); assay type: functional
[15] = cytotoxicity toward HCT116 cells – cell-based, CellTiter-Glo luminescence, IC50, dose response (AID 1117332); assay type: functional; settings: HCT-116
[16] = SNU-C1 cell viability reduction, dose response, CellTiter-Glo luminescence (AID 1117323); assay type: functional, cell-based
[17] = cytotoxicity toward Colo320 cells – cell-based, CellTiter-Glo luminescence, IC50, dose response (AID 1117334); assay type: functional; settings: COLO 320
[18] = rise of 4N DNA cells, HeLa – IC50, dose response (AID 1117351); assay type: functional, cell-based
[19] = cytotoxicity toward HT-29 cells – cell-based, CellTiter-Glo luminescence, IC50, dose response (AID 1117330); assay type: functional
[20] = Reduced DLD-1 viability, concentration-response, CellTiter-Glo luminescence (AID 1117352); assay type: functional
[21] = HCT116 cell viability decrease, GSK3B pretreatment – CellTiter-Glo, IC50, dose response (AID 1117339); assay type: functional; settings: HCT-116
[22] = inhibitors of non-replicating M. tuberculosis, dose response, luciferase, dry powder (AID 651619); assay type: functional; settings: Mycobacterium tuberculosis
[23] = HepG2 hepatoma cell viability loss – plate reader, dry powder, cytotoxicity control, dose response (AID 651947); assay type: functional, cell-based
[24] = HeLa cell viability loss – plate reader, dry powder, cytotoxicity control, dose response (AID 651946); assay type: functional, cell-based
[25] = inhibitors of non-replicating M. tuberculosis, dose response, luciferase, dry powder (AID 651620); assay type: functional; settings: Mycobacterium tuberculosis
[26] = target: NAD-dependent protein deacylase sirtuin-5, mitochondrial (Homo sapiens, UniProt Q9NXA8); assay: blockers of sirtuin-5 peptide desuccinylation – biochemical, fluorescence imaging, cherry-pick, set 6, dose response (AID 720597)
[27] = reduced cellular PGC1a acetyl-lysine signal – cell-based, cherry-picked samples, dose response (AID 720514); assay type: functional;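 further: potency may reflect raised or lowered acetylation signal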
[28] = Trypanosoma cruzi growth suppression in host cells – NIH3T3 host cells, beta-gal luminescence, confirmation (AID 2044); assay type: functional, cell-based;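 further: intracellular parasites grown in NIH/3T3 mouse fibroblasts as host cells; luminescent beta-galactosidase reporter signal from transgenic T. cruzi replicating inside host cells; inhibitors lower the luminescence signal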
[29] = NIH3T3 cell viability loss – ATP luminescence, mouse fibroblasts, counter-screen, dose response (AID 2010); assay type: functional, cell-based;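 further: cells exposed to compound for about 90 hours before reading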
[30] = test system: INS1; assay: INS-1E survival protection against cytokine death – cell-based, luminescence, retest, dose response (AID 449756); assay type: functional; settings: Rattus norvegicus;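 further: cell death triggered by IL-1 beta plus TNF-alpha plus IFN-gamma mixture; protective hits raise ATP signal compared with cytokine alone wells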
[31] = target: COUP transcription factor 2 (Homo sapiens, UniProt P24468); assay: Luminescence-based cell-based high throughput dose response assay to identify inhibitors of COUP-TFII (NR2F2).; assay type: functional;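 further: HEK293 cells transiently cotransfected with COUP-TFII expression vector and reporter; luciferase reporter luminescence driven by COUP-TFII from the pX2-168 reporter plasmid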
[32] = cells
[33] = NIH-3T3 fibroblast cytotoxicity, dose response, cytotoxicity control, cell-based, fluorescence, Alamar Blue, secondary assay (AID 2327); assay type: functional;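 further: NIH-3T3 mouse fibroblasts cultured with fluconazole at 8 µg/mL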
[34] = fluconazole-exposed Candida albicans growth modulators – fluorescence, retest, confirmation (AID 2467); assay type: functional, cell-based
[35] = target: Paired box protein Pax-8 (Homo sapiens, UniProt Q06710); assay: PAX8 transcriptional activity inhibition in RMG-I – RMG-I cells, luciferase, cherry-pick, dose response (AID 687027); assay type: functional, cell-based;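 further: luciferase reporter driven by Pax8 target thyroperoxidase promoter measured by SteadyGlo luminescence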
[36] = inhibitors acting on PAX2 in cells – cell-based, plate reader, dry powder samples, selectivity assay for PAX8 inhibitor project, dose response (AID 743048); assay type: functional;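 further: HEK293 cells carrying a WT1 promoter luciferase reporter driven by expressed Pax2; potency is for inhibition of Pax2 driven reporter signal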
[37] = OVCAR-3 cell viability loss – plate reader, dry powder samples, PAX8 inhibitor project, dose response (AID 743044); assay type: functional, cell-based
[38] = IGROV1 cell killing – plate reader, dry powder samples, PAX8 inhibitor project, dose response (AID 743043); assay type: functional, cell-based; settings: IGROV-1
[39] = OVCAR4 cell viability loss – plate reader, dry powder, SA11, cytotoxicity control for PAX8 inhibitor project, dose response (AID 743150); assay type: functional, cell-based; settings: OVCAR-4
[40] = COV434 cell viability loss – plate reader, dry powder, SA7, cytotoxicity control for PAX8 inhibitor project, dose response (AID 743145); assay type: functional, cell-based
[41] = OV-90 cell viability loss – plate reader, dry powder, SA8, PAX8 inhibitor project, dose response (AID 743149); assay type: functional, cell-based
[42] = PAX8-dependent cell viability loss – plate reader, dry powder, dose response (AID 743049); assay type: functional, cell-based
[43] = target: Endoplasmic reticulum aminopeptidase 2 (Homo sapiens, UniProt Q6P179); assay: inhibition of ERAP2 arginine-AMC cleavage – biochemical, fluorescence plate reader, cherry-picked, set 2, selectivity assay for selective ERAP1 modulator project, dose response (AID 743320)
[44] = target: Endoplasmic reticulum aminopeptidase 1 (Homo sapiens, UniProt Q9NZ08); assay: inhibition of human ERAP1 enzyme activity – biochemical, cherry-pick, set 2, plate reader, dose response (AID 743314)
[45] = growth inhibition of yeast DHODH-expressing 3D7 parasites – SYBR Green, dry powder samples, dose response (AID 1159570); assay type: functional, cell-based;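 further: parasite growth measured after 72 hours of compound exposure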
[46] = toxicity to human HepG2 hepatoma cells – cell-based, plate reader, dry powder samples, cytotoxicity control, dose response (AID 1159569); assay type: functional;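 further: inhibitor potency with signal falling toward the positive control level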
[47] = P. falciparum Dd2 growth inhibitors, dose response, SYBR Green, cherry-picked samples (AID 1159567); assay type: functional, cell-based
[48] = antimalarial activity against Dd2 parasites – SYBR Green fluorescence, erythrocytes, dry powder, set 2, dose response (AID 1159574); assay type: functional, cell-based
[49] = Dd2 malaria parasite growth inhibition potency – SYBR Green, dry powder samples, dose response (AID 1159566); assay type: functional, cell-based;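 further: potency for growth inhibition with lower SYBR green DNA signal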
[50] = growth inhibition of PfATP4-mutant resistant parasites – NITD609-resistant line, SYBR Green, dry powder, dose response (AID 1159571); assay type: functional, cell-based;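 further: parasites synchronized at ring stage by sorbitol before testing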

NAD-dependent protein deacylase sirtuin-5, mitochondrial, sequence (Q9NXA8 whole entry): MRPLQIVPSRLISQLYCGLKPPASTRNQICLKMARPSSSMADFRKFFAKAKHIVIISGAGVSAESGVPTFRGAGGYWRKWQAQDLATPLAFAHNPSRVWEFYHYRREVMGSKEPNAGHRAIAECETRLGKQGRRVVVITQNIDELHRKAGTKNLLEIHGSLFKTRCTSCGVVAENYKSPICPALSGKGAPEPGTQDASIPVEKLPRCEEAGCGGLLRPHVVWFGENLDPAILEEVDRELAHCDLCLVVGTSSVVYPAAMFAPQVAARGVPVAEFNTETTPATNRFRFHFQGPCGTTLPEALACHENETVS
Paired box protein Pax-8, sequence (Q06710 whole entry): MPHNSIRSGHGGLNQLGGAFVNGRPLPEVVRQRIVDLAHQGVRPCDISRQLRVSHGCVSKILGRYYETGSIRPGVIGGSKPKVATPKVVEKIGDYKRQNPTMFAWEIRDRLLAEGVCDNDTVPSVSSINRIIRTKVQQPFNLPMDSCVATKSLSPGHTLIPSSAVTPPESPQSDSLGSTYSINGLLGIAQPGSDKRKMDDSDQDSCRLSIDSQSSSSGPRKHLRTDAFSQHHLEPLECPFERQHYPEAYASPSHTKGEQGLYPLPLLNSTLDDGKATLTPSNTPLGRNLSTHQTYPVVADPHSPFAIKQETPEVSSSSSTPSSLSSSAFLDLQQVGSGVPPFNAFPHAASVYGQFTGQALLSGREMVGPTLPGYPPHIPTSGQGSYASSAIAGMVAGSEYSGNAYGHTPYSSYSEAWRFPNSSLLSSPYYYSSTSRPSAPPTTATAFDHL
Endoplasmic reticulum aminopeptidase 2, sequence (Q6P179 whole entry): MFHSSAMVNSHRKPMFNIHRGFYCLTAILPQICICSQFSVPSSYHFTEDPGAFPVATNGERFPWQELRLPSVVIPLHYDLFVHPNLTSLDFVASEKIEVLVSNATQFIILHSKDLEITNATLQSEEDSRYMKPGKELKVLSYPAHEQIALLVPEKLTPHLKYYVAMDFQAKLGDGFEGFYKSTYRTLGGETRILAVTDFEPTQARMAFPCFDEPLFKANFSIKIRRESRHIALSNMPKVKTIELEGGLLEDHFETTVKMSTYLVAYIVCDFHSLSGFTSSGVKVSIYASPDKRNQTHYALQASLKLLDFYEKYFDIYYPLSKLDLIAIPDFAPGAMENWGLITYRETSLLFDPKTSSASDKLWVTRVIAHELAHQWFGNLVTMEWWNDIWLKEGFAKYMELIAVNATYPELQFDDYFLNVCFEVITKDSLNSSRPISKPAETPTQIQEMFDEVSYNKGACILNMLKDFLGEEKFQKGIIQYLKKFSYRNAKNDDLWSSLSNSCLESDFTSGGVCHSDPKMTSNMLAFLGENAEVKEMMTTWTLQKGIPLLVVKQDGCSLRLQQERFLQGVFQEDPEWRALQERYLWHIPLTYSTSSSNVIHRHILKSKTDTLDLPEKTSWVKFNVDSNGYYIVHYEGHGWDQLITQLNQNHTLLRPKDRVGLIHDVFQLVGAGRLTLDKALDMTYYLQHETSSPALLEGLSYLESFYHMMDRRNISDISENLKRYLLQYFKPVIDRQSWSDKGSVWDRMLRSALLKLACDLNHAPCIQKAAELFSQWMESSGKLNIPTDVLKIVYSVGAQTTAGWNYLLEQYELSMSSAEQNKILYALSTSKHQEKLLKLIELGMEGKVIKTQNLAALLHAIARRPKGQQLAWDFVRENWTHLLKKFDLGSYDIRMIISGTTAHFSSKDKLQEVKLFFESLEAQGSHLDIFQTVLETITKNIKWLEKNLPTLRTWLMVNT
COUP transcription factor 2, sequence (P24468 whole entry): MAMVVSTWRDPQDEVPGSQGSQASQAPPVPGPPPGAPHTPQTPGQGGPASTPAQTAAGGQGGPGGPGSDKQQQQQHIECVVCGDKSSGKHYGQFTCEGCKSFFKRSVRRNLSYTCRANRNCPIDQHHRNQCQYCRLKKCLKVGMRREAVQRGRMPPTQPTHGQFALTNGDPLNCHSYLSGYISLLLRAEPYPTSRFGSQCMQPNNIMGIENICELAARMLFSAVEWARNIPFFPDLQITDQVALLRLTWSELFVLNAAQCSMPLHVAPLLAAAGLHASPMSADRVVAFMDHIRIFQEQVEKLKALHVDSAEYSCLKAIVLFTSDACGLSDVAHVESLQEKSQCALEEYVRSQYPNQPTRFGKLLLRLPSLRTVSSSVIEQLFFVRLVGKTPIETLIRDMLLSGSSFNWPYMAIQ
Endoplasmic reticulum aminopeptidase 1, sequence (Q9NZ08 whole entry): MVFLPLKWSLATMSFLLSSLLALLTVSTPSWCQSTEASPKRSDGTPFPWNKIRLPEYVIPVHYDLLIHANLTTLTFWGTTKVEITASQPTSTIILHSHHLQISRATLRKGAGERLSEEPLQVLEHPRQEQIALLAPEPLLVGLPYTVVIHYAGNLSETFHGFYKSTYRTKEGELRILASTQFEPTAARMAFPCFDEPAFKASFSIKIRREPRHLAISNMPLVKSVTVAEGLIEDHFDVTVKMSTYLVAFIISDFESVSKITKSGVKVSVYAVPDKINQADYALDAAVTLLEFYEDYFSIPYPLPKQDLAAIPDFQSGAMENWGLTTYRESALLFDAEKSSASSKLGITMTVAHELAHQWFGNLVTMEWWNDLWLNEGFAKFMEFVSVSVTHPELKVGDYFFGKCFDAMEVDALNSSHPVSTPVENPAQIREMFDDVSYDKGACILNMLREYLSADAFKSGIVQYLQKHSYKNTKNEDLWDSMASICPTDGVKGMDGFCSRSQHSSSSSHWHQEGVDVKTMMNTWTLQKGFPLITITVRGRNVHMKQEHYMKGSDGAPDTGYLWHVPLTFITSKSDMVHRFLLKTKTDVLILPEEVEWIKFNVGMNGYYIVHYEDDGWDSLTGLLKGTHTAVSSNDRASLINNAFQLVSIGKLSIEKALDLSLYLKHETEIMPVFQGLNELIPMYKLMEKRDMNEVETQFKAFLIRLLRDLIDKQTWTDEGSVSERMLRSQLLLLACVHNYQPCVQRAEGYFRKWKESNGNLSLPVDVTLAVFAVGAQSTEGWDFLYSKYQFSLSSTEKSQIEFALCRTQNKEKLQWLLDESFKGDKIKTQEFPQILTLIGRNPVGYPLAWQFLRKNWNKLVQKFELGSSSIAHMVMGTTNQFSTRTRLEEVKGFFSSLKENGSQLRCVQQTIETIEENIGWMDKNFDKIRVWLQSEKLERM

## O=c1[nH]c(=O)n([C@H]2C[C@H](O)[C@@H](CO)O2)cc1F [FLOXURIDINE]
[1]
  EC50: 0.916 µM (active)
[2]
  EC50: 57 µM (active)
[3]
  EC50: 0.596 µM (active)
[4]
  EC50: > 150 µM (inconclusive)
[5]
  EC50: > 150 µM (not active)
[6]
  EC50: 1.34 µM (active)
[7]
  AC50: 0.0619 µM (active)
[8]
  GI50: 0.25 µM (active)
[9]
  GI50: 0.34 µM (active)
[10]
  GI50: 0.25 µM (active)
[11]
  AC50: > 70 µM (inactive)
[12]
  IC50: > 10 µM (inactive)
[13]
  IC50: > 20 µM (inactive)
[14]
  IC50: 0.001 µM (active)
[15]
  IC50: 0.001 µM (active)
[16]
  IC50: > 20 µM (inactive)
[17]
  IC50: > 20 µM (inactive)
[18]
  IC50: > 10 µM (inactive)
[19]
  IC50: > 20 µM (inactive)
[20]
  IC50: 0.001 µM (active)
[21]
  IC50: 0.001 µM (active)

## Brc1ccc(-c2nnc(SCc3ccccn3)o2)cc1
[22]
  IC90: 4 µM (active)
[23]
  AC50: 5.42 µM (active)
[24]
  AC50: > 52 µM (inactive)
[25]
  IC90: 4 µM (active)

## COCCNC(=O)C[C@@H]1CC[C@H]2[C@H](COc3ccc(NC(=O)Nc4cccc(F)c4)cc3C(=O)N2C)O1
[26]
  AC50: > 30 µM (inactive)

## CC(=O)Nc1ccc2c(CSc3nncs3)cc(=O)oc2c1
[27]
  AC50: 26.5 µM (active)

## Cc1ccc(-c2cc3cccc[n+]3cc2-c2ccc(C)cc2)cc1
[28]
  EC50: < 0.1 µM (active)
[29]
  EC50: > 60 µM (not active)
[30]
  AC50: 0.572 µM (active)
[31]
  IC50: 5.1 µM (active)
[32]
  EC50: 0.019 µM (active)

## CC(C)(C)c1nnc(NC(=O)CCS(=O)(=O)c2ccccc2)s1
[33]
  EC50: > 150 µM (inactive)
[34]
  EC50: 1.09 µM (active)
[35]
  AC50: 4.6 µM (active)
[36]
  AC50: > 52 µM (inactive)
[37]
  AC50: 48.2 µM (active)
[38]
  AC50: 50.7 µM (active)
[39]
  AC50: 4.22 µM (active)
[40]
  AC50: > 100 µM (inactive)
[41]
  AC50: > 100 µM (inactive)
[42]
  AC50: 25 µM (active)

## CCC(=O)N(C)C[C@@H]1Oc2ncc(C#Cc3ccncc3)cc2C(=O)N([C@@H](C)CO)C[C@@H]1C
[43]
  AC50: 17.2 µM (active)
[44]
  AC50: 2.86 µM (active)

## COc1ccc(NC(=O)N2CCCCN3[C@H](CO)[C@H](c4ccc(C#Cc5ccccc5)cc4)[C@@H]3C2)cc1
[45]
  AC50: 0.00346 µM (active)
[46]
  AC50: 85.1 µM (active)
[47]
  AC50: < 0.3 µM (active)
[48]
  AC50: 0.00652 µM (active)
[49]
  AC50: 0.00384 µM (active)
[50]
  AC50: 0.00309 µM (active)
